For 11 molecules, IC50 and Viability results are on record in patent US20240409536A1, “COMPOUNDS AND METHODS FOR MODULATING SPLICING” (REMIX THERAPEUTICS INC., priority 2021, published 2024).

One data set relates to Target C. Description: HiBiT protein abundance assay, Target C (K562 HiBiT knock-in cells). The format is cell-based, human. Conditions: 24 hours. The procedure, abridged: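 K562 knock-in cells (10000/well, IMDM+1% FBS) treated 24 h at 37 °C with 10-point 3-fold dilutions, top final 10 μM, DMSO ≤0.25%. HiBiT lytic luminescence read; response normalized to unmodified K562 and DMSO-treated controls. IC50 interpolated at 50% abundance by four-parameter logistic fit.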

The test system of a further data set is K562 cells. Description: Cell Titer Glo 2.0 cell viability assay in K562 cells. Conditions: 72 hours.
The test system of the next data set is HiBiT-tagged HTT protein. The data set can be described thus: HiBiT protein abundance assay, HTT (K562 HiBiT knock-in cells). The class given is cell-based, human. The settings on record: 24 hours. The procedure, abridged:
(§1)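 K562 cells with endogenous HiBiT knock-in tag, 10-point 3-fold dilutions (top 10 μM final, ≤0.25% DMSO), 24 h at 37 °C. Lytic Nano-Glo HiBiT luminescence, normalized to DMSO and unmodified K562 baselines; IC50 is concentration giving 50% protein abundance from four-parameter fit.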

For a further data set, the system named is HiBiT-tagged MYB protein. Description: HiBiT protein abundance assay, MYB (K562 HiBiT knock-in cells). The class given is cell-based, human. Conditions: 24 hours. An outline of the steps:
as §1

A further data set concerns SMN2 mRNA. The data set can be described thus: Gene panel canonical junction qPCR assay, SMN2 CJ mRNA decrease. The class given is cell-based, human. The settings on record: Homo sapiens, canonical junction qPCR, read-out: SMN2 IC50 (decrease in CJ mRNA levels). The procedure, abridged:
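IC50 values describe loss of canonical-junction transcript, fitted by 4-parameter logistic to percent response derived from fixed ΔCt windows. Read-out: RT-qPCR on lysates of compound-treated K562 or A673 cells, probes overlapping the exon junction, ΔΔCt versus housekeeping gene and DMSO control.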

`CN[C@@H]1CCN(c2ccc(C(=O)Nc3cc(F)c4nc(C)cn4c3)c3nccnc23)C1` (single isomer, unassigned) [Compound 193, N-{8-fluoro-2-methylimidazo[1,2-a]pyridin-6-yl}-8-[3-(methylamino)pyrrolidin-1-yl]quinoxaline-5-carboxamide]: the IC50 in the data set with Target C was 1 to 10 µM; in the data set with HiBiT-tagged HTT protein, 1 to 10 µM; in the data set with HiBiT-tagged MYB protein, < 0.1 µM; with SMN2 mRNA, < 0.1 µM. Moreover, the Viability result with K562 cells is “A (A represents <100 nM)”.
On to `CN[C@H]1CCN(c2ccc(C(=O)Nc3cc(F)c4nc(C)cn4c3)c3nccnc23)C1` (single isomer, unassigned) [Compound 194, N-{8-fluoro-2-methylimidazo[1,2-a]pyridin-6-yl}-8-[3-(methylamino)pyrrolidin-1-yl]quinoxaline-5-carboxamide], for which the IC50 in the data set on Target C was 0.1 to 1 µM; in the data set on HiBiT-tagged HTT protein, 1 to 10 µM; in the data set with HiBiT-tagged MYB protein, < 0.1 µM; in the data set on SMN2 mRNA it was < 0.1 µM. Besides, in the data set with K562 cells, the Viability result was “A (A represents <100 nM)”.
With `Cc1cn2nc(NC(=O)c3ccc(N4CCNCC4)c4ccnnc34)cc(C)c2n1` [Compound 100], the IC50 in the data set with Target C, with HiBiT-tagged HTT protein, in the data set with HiBiT-tagged MYB protein and in the data set with SMN2 mRNA was 0.1 to 1 µM each time. Also, the Viability entry with K562 cells is listed as “B (B represents 100-1000 nM)”.
For `Cc1cn2cc(NC(=O)c3ccc(N4CCNC5(CC5)C4)c4ccnnc34)cc(F)c2n1` [Compound 105], the IC50 with Target C is 1 to 10 µM; in the data set on HiBiT-tagged HTT protein, 1 to 10 µM; in the data set with HiBiT-tagged MYB protein, 0.1 to 1 µM; with SMN2 mRNA, < 0.1 µM. For the same molecule, in the data set with K562 cells, the Viability entry is “B (B represents 100-1000 nM)”.
On to `Cc1cn2cc(NC(=O)c3ccc(N4C[C@H]5CC[C@@H](C4)N5)c4ccnnc34)cc(F)c2n1` [Compound 108], for which the IC50 was > 10 µM in the data set with Target C, 1 to 10 µM with HiBiT-tagged HTT protein, 0.1 to 1 µM with HiBiT-tagged MYB protein and < 0.1 µM with SMN2 mRNA.
Turning to `Cc1cn2nc(NC(=O)c3ccc(N4CCNCC4)c4ccnnc34)cc2c(C)n1` [Compound 123], the IC50 with Target C, with HiBiT-tagged HTT protein, in the data set with HiBiT-tagged MYB protein and with SMN2 mRNA was 1 to 10 µM throughout. Also, the Viability result with K562 cells is given as “C (C represents 1000-9999 nM)”.
For `Cc1cn2cc(NC(=O)c3ccc(N4CCNCC4)c4ccnnc34)cc(C)c2n1` [Compound 125], the IC50 with Target C is 1 to 10 µM; in the data set with HiBiT-tagged HTT protein it was 1 to 10 µM; in the data set on HiBiT-tagged MYB protein it was 0.1 to 1 µM; with SMN2 mRNA, < 0.1 µM. The Viability entry in the data set on K562 cells is recorded as “B (B represents 100-1000 nM)”.
For `O=C(Nc1cn[nH]c1)c1ccc(N2CCNCC2)c2ccnnc12` [Compound 126], the IC50 in the data set with Target C, in the data set with HiBiT-tagged HTT protein, with HiBiT-tagged MYB protein and in the data set with SMN2 mRNA was > 10 µM throughout.
Turning to `Cc1cn2cc(NC(=O)c3ccc(N4CCN(C)CC4)c4ccnnc34)cc(F)c2n1` [Compound 127], the IC50 is 1 to 10 µM in the data set on Target C, 1 to 10 µM with HiBiT-tagged HTT protein, 0.1 to 1 µM in the data set on HiBiT-tagged MYB protein and < 0.1 µM in the data set with SMN2 mRNA. In addition, in the data set with K562 cells, the Viability entry was “C (C represents 1000-9999 nM)”.
`Cc1cn2cc(NC(=O)c3ccc(N(C)[C@@H]4C[C@H]5CC[C@@H](C4)N5)c4ccnnc34)cc(F)c2n1` [Compound 156]: the IC50 with Target C was > 10 µM; with HiBiT-tagged HTT protein, > 10 µM; in the data set with HiBiT-tagged MYB protein, 1 to 10 µM; in the data set on SMN2 mRNA, 0.1 to 1 µM.
Regarding `Cc1cn2cc(NC(=O)c3ccc(N4C[C@@H](C)N[C@@H](C)C4)c4nccnc34)cc(F)c2n1` [Compound 186, 8-(3,5-dimethylpiperazin-1-yl)-N-{8-fluoro-2-methylimidazo[1,2-a]pyridin-6-yl}quinoxaline-5-carboxamide], the IC50 with Target C is 1 to 10 µM; in the data set on HiBiT-tagged HTT protein it was 1 to 10 µM; with HiBiT-tagged MYB protein, < 0.1 µM; with SMN2 mRNA it was < 0.1 µM.
